Experimental data reported in publication PMC8267945, “Plumbagin, a Natural Product with Potent Anticancer Activities, Binds to and Inhibits Dihydroorotase, a Key Enzyme in Pyrimidine Biosynthesis” (International Journal of Molecular Sciences, 2021).

Tests used:
huDHOase [1] = molecular target: T1, huDHOase (Homo sapiens, UniProt P27708); assay: rapid spectrophotometric DHOase enzyme assay (hydrolysis of DHO); assay type: biochemical; conditions: 200 μM compound in the standard assay
T1 construct: huDHOase1456-1846-NdeI-N; made in house; host or cells: E. coli BL21(DE3)
T1 sequence (P27708 1456-1846): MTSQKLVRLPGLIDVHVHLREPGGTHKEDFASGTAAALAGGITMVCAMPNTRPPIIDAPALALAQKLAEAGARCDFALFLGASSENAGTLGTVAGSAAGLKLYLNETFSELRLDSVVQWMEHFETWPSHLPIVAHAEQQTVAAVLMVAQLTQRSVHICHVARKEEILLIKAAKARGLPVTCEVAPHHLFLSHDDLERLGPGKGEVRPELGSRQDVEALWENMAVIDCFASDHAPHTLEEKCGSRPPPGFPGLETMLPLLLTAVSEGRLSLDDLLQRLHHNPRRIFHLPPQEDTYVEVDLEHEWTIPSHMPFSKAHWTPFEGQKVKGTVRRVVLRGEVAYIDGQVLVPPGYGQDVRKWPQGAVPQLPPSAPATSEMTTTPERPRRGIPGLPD
Procedure: A rapid spectrophotometric assay was used to determine the activity of DHOase. Briefly, the hydrolysis of DHO was measured at 25 °C as the decrease in absorbance at 230 nm. The purified DHOase was added to a 2 mL solution containing 0.5 mM DHO and 100 mM Tris–HCl at pH 8.0 to start the reaction. […] The hydrolysis of DHO was monitored using a UV/Vis spectrophotometer (Hitachi U 3300; Hitachi High-Technologies, Tokyo, Japan). A unit of activity was defined as the amount of enzyme catalyzing the hydrolysis of 1 μmol DHO/min, and the specific activity was expressed in terms of units of activity per mg of enzyme. The kinetic parameters Km and Vmax were determined from a nonlinear plot by fitting the hydrolyzing rate from individual experiments to the Michaelis–Menten equation (Enzyme Kinetics module of Sigma-Plot; Systat Software, Chicago, IL, USA).

ScDHOase = molecular target: T2, ScDHOase (Saccharomyces cerevisiae, UniProt P20051); assay: fluorescence quenching binding assay
T2 construct: made in house; host or cells: E. coli BL21(DE3)
Procedure: (§1) Figure 7 The data used to calculate the Kd values of various DHOases. (A) The fluorescence emission spectra of ScDHOase with PLU of different concentrations (0–200 μM; 0, 10, 20, 50, 75, 100, 125, 150, 175, and 200 μM). The decrease in intrinsic fluorescence of protein was measured at 324 nm upon excitation at 280 nm with a spectrofluorometer. […] (B) The fluorescence emission spectra of huDHOase with PLU of different concentrations (0–200 μM). (C) The fluorescence emission spectra of StDHOase with PLU of different concentrations. (D) The fluorescence emission spectra of ScDHOase–R18A with PLU of different concentrations. (E) The fluorescence emission spectra of ScDHOase–T106A with PLU of different concentrations. […] (F) An aliquot amount of PLU was added to the enzyme solution to determine the Kd. The Kd was obtained by the following equation: ΔF = ΔFmax − Kd(ΔF/[PLU]). Data points are an average of 2–3 determinations within a 10% error.
(§2) The decrease in the intrinsic fluorescence of DHOase was measured with a spectrofluorometer (Hitachi F-2700; Hitachi High-Technologies, Japan). The Kd was obtained using the following equation: ΔF = ΔFmax − Kd(ΔF/[PLU]).
(§3) The Kd value of the purified DHOase was determined using the fluorescence quenching method as previously described for DHOase, DHPase, and DnaB helicase. Briefly, an aliquot of the compound was added into the solution containing DHOase (1 μM) and 50 mM HEPES at pH 7.0. The decrease in the intrinsic fluorescence of DHOase was measured at 324 nm upon excitation at 280 nm and 25 °C with a spectrofluorometer (Hitachi F-2700; Hitachi High-Technologies, Japan). The Kd was obtained using the following equation: ΔF = ΔFmax − Kd(ΔF/[PLU]).

ScDHOase–R18A = molecular target: T3, ScDHOase–R18A (Saccharomyces cerevisiae, UniProt P20051, R18A); assay: fluorescence quenching binding assay
T3 construct: made in house; host or cells: E. coli BL21(DE3)
Procedure: as §1, §2, §3

ScDHOase–T106A = molecular target: T4, ScDHOase–T106A (Saccharomyces cerevisiae, UniProt P20051, T106A); assay: fluorescence quenching binding assay
T4 construct: made in house; host or cells: E. coli BL21(DE3)
Procedure: as §1, §2, §3

huDHOase [2] = molecular target: T1, huDHOase; assay: fluorescence quenching binding assay
Procedure: as §1, §2, §3

StDHOase = molecular target: T5, StDHOase (Salmonella typhimurium, UniProt P06204); assay: fluorescence quenching binding assay; parameters: species or system Salmonella enterica serovar Typhimurium LT2
T5 construct: made in house; host or cells: E. coli BL21(DE3)
Procedure: as §1, §2, §3

4T1 cells [3] = assay: chromatin condensation assay (Hoechst staining); assay type: cell-based, mouse
Procedure: The apoptosis in 4T1 cells was assayed with Hoechst 33342 staining. The 4T1 cells were seeded in 6-well plates at a density of 5 × 10^5 cells per well in a volume of […] of culture medium. Cells were allowed to adhere for 16 h. After different treatments, cells were incubated for an additional 24 h, washed with PBS, stained with the Hoechst dye (1 μg·mL^−1) in the dark at RT for 10 min, and imaged using an inverted fluorescence microscope (Axiovert 200 M; Zeiss Axioplam, Oberkochen, Germany) at excitation and emission wavelengths (λem) of 360 and 460 nm, respectively. The apoptotic index was calculated as follows: apoptotic index = apoptotic cell number/(apoptotic cell number + nonapoptotic cell number).

4T1 cells [4] = assay: clonogenic formation assay; assay type: cell-based, mouse
Procedure: A clonogenic formation assay was used to assess the 4T1 cell growth to study whether the PLU can inhibit 4T1 cell proliferation. Briefly, 4T1 cells were seeded at a density of 10^3 cells per well into 6-well plates and incubated overnight for attachment. After different treatments, plates were incubated for 5–7 days to allow clonogenic growth. After washing with PBS, colonies were fixed with methanol and stained with 0.5% crystal violet for 20 min, and the number of colonies was counted under a light microscope.

tumor growth = conditions: cited from earlier work

T2 sequence (P20051 whole entry): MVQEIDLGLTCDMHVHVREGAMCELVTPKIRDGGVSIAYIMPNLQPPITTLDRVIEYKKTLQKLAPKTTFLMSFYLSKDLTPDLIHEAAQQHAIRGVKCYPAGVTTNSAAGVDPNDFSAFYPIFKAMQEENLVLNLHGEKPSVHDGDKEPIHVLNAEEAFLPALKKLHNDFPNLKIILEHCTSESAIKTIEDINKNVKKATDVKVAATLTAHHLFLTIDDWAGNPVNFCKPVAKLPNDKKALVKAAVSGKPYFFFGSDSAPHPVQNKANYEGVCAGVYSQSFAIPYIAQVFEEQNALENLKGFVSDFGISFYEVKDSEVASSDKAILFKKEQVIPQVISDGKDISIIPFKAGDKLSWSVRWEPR
T4 sequence (P20051 whole entry T106A): as the sequence (P20051 whole entry) above, with T106A counted along it
T5 sequence (P06204 whole entry): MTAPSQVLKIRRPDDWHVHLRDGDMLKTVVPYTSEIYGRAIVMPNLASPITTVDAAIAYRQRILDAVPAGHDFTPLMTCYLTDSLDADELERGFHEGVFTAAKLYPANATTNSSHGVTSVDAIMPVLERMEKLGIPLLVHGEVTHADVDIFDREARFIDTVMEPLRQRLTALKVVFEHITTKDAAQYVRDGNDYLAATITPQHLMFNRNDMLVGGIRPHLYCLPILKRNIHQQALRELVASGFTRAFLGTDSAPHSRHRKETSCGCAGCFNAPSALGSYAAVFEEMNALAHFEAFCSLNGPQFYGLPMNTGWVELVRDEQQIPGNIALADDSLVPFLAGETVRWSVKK
T3 sequence (P20051 whole entry R18A): as the sequence (P20051 whole entry) above, with R18A counted along it

Question: Which “decrease of the activity of huDHOase” value (huDHOase [1]) does the source give for `CC1=CC(=O)c2c(O)cccc2C1=O` [PLU, plumbagin] here?
Answer: Its value is 30%.

Question: What about the Kd (ScDHOase) of the same compound?
Answer: Its Kd is 64.8 ± 1.6 µM.

Question: What about the “quenching of the intrinsic fluorescence of ScDHOase” value (ScDHOase; 200 μM compound, 324 nm, excitation 280 nm) of the same compound?
Answer: The value was 87.7%.

Question: What about the “λmax of ScDHOase emission” value (ScDHOase; PLU 0–200 μM) of the same compound?
Answer: Its value is “from 324 to 317.5”.

Question: What about the “λem shift of ScDHOase” value (ScDHOase; PLU 0–200 μM, blue shift) of the same compound?
Answer: The value was 6.5 nm.

Question: And the Kd (ScDHOase–R18A)?
Answer: The Kd was 181 ± 5.9 µM.

Question: And the “quenching of ScDHOase–R18A” value (ScDHOase–R18A; PLU 0–200 μM)?
Answer: Its value is 75.1%.

Question: What about the “λem shift of ScDHOase–R18A” value (ScDHOase–R18A; PLU 0–200 μM) of the same compound?
Answer: Its value is 4.0 nm.

Question: And the “λmax of ScDHOase–R18A emission” value (ScDHOase–R18A; PLU 0–200 μM)?
Answer: Its value is “from 324.5 to 320.5”.

Question: What about the Kd (ScDHOase–T106A) of the same compound?
Answer: The Kd was 70.8 ± 2.6 µM.

Question: And the “quenching of ScDHOase–T106A” value (ScDHOase–T106A; PLU 0–200 μM)?
Answer: The value was 90.0%.

Question: What about the “λem shift of ScDHOase–T106A” value (ScDHOase–T106A; PLU 0–200 μM) of the same compound?
Answer: Its value is 6.5 nm.

Question: What about the “λmax of ScDHOase–T106A emission” value (ScDHOase–T106A; PLU 0–200 μM) of the same compound?
Answer: The value was “from 328 to 321.5”.

Question: And the “quenching of huDHOase” value (huDHOase [2]; PLU 0–200 μM)?
Answer: Its value is 75.6%.

Question: What about the “λem shift of huDHOase” value (huDHOase [2]; PLU 0–200 μM) of the same compound?
Answer: Its value is 1.5 nm.

Question: What about the “λmax of huDHOase emission” value (huDHOase [2]; PLU 0–200 μM) of the same compound?
Answer: Its value is “from 340 to 338.5”.

Question: What about the Kd (huDHOase [2]; fluorescence quenching titration curve) of the same compound?
Answer: Its Kd is 151 ± 4.1 µM.

Question: What about the Kd (StDHOase) of the same compound?
Answer: The Kd was 80.3 ± 2.5 µM.

Question: And the “quenching of StDHOase” value (StDHOase; PLU 0–200 μM)?
Answer: Its value is 85.9%.

Question: And the “λem shift of StDHOase” value (StDHOase; PLU 0–200 μM)?
Answer: Its value is 11.0 nm.

Question: And the “λmax of StDHOase emission” value (StDHOase; PLU 0–200 μM)?
Answer: Its value is “from 330.5 to 319.5”.

Question: What about the “apoptosis with DNA fragmentation” value (4T1 cells [3]; 10 μM PLU) of the same compound?
Answer: Its value is 100%.

Question: What about the Apoptotic rate (4T1 cells [3]; PLU 2 μM) of the same compound?
Answer: The Apoptotic rate was 8%.

Question: And the Colony count (4T1 cells [4]; PLU 2 μM)?
Answer: Its Colony count is 73%.

Question: And the “suppression of proliferation and colony formation” value (4T1 cells [4]; pretreatment with 10 μM PLU)?
Answer: The value was 98%.

Question: What about the “tumor growth in PLU-treated mice” value (tumor growth; animal models) of the same compound?
Answer: The value was “significant reduction in tumor growth”.

Question: What about the “side effects in PLU-treated mice” value (tumor growth; mouse, in vivo) of the same compound?
Answer: The value was “no side effects”.
